Data from ChEMBL document CHEMBL1201862, “PubChem BioAssay data set” (2004).
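Dose response: 5 concentrations. Exposure: 48 h. Format: 96-well plates. Endpoint: linear interpolation; highest concentration if not reached. Here, GI50 denotes the concentration required for 50% inhibition of growth.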 Activity calls are given as the source filed them. Cut-off read from the data, not from the text of the source: active = GI50 up to about 1.1 µM and inactive = higher.

Legend:
Assay in all cases: NCI-60 cell line screen, 48 h
ACHN = tested on: ACHN
CCRF-CEM = tested on: CCRF-CEM
HCT-116 = tested on: HCT-116
HCT-15 = tested on: HCT-15
HOP-92 = tested on: HOP-92
M14 = tested on: M14
MDA-MB-231 = tested on: MDA-MB-231
MDA-MB-435 = tested on: MDA-MB-435
MOLT-4 = tested on: MOLT-4
NCI-H226 = tested on: NCI-H226
NCI-H522 = tested on: NCI-H522
NCI/ADR-RES = tested on: NCI/ADR-RES
OVCAR-5 = tested on: OVCAR-5
OVCAR-8 = tested on: OVCAR-8
SF-539 = tested on: SF-539
SNB-19 = tested on: SNB-19
SR = tested on: SR
SW-620 = tested on: SW-620
U-251 = tested on: U-251
RPMI-8226 = tested on: RPMI-8226

Compound | GI50 (ACHN) | GI50 (CCRF-CEM) | GI50 (HCT-116) | GI50 (HCT-15) [µM] | GI50 (HOP-92) | GI50 (M14) | GI50 (MDA-MB-231) | GI50 (MDA-MB-435) | GI50 (MOLT-4) | GI50 (NCI-H226) | GI50 (NCI-H522) | GI50 (NCI/ADR-RES) | GI50 (OVCAR-5) | GI50 (OVCAR-8) | GI50 (SF-539) | GI50 (SNB-19) | GI50 (SR) | GI50 (SW-620) | GI50 (U-251) | GI50 (RPMI-8226)
Nc1nc(Cl)nc2c1ncn2C1CCC(COP(=O)(O)OP(=O)(O)OP(=O)(O)O)O1 (stereo not given) | 25.2 µM (inactive) | 44.3 µM (inactive) | 35.2 µM (inactive) | 34.8 | 23.7 µM (inactive) | 16.8 µM (inactive) | 26.8 µM (inactive) | 23 µM (inactive) | 65 µM (inactive) | 27.7 µM (inactive) | 25.8 µM (inactive) | 21.8 µM (inactive) | 22.8 µM (inactive) | 21.4 µM (inactive) | 67.3 µM (inactive) | > 100 µM (inactive) | 23.1 µM (inactive) | 32.4 µM (inactive) | 37.5 µM (inactive) | 
COC(=O)C1=C(C(=O)OC)c2cc(OC)ccc2C(C(=S)N(C)C)S1 (stereo not given) | > 100 µM (inactive) |  | > 100 µM (inactive) | > 100 | 0.0111 µM (active) | > 100 µM (inactive) | > 100 µM (inactive) | > 100 µM (inactive) | > 100 µM (inactive) | > 100 µM (inactive) |  | > 100 µM (inactive) | > 100 µM (inactive) | > 100 µM (inactive) |  | > 100 µM (inactive) | > 100 µM (inactive) | > 100 µM (inactive) | > 100 µM (inactive) | > 100 µM (inactive)
Cc1cnc2sn(-c3ccc(Oc4ccccc4)cc3)c(=O)c2c1 | 13.7 µM (inactive) | 5.11 µM (inactive) | 14 µM (inactive) | 7.38 |  | 7.43 µM (inactive) | 20.5 µM (inactive) | 13.3 µM (inactive) | 8.67 µM (inactive) | 18.2 µM (inactive) | 5.58 µM (inactive) | 21.7 µM (inactive) | 18.4 µM (inactive) | 28.8 µM (inactive) | 14 µM (inactive) | 19.7 µM (inactive) | 7.06 µM (inactive) | 21.2 µM (inactive) | 17 µM (inactive) | 9.62 µM (inactive)
C#CC(O)/C=C/C(O)CCCC(O)CC#CC(O)C#CCCCCC(O)/C=C/CCCC(O)/C=C/CCCCCCCCCCCCCC(O)C(O)C#CC(=O)O (stereo not given) | > 25 µM (inactive) | > 25 µM (inactive) | > 25 µM (inactive) | > 25 | > 25 µM (inactive) | > 25 µM (inactive) | > 25 µM (inactive) | > 25 µM (inactive) | > 25 µM (inactive) | > 25 µM (inactive) | 12.8 µM (inactive) | > 25 µM (inactive) | > 25 µM (inactive) | > 25 µM (inactive) |  | > 25 µM (inactive) | > 25 µM (inactive) |  | > 25 µM (inactive) | > 25 µM (inactive)
Nc1ccccc1/N=N/c1c(S(=O)(=O)O)cc2cc(S(=O)(=O)O)cc(O)c2c1O | > 100 µM (inactive) | > 100 µM (inactive) | 26.2 µM (inactive) | > 100 | > 100 µM (inactive) | > 100 µM (inactive) | > 100 µM (inactive) | > 100 µM (inactive) | > 100 µM (inactive) | > 100 µM (inactive) | > 100 µM (inactive) | > 100 µM (inactive) | > 100 µM (inactive) | > 100 µM (inactive) |  | > 100 µM (inactive) | > 100 µM (inactive) | > 100 µM (inactive) | > 100 µM (inactive) | > 100 µM (inactive)
C=C1C(=O)OC2C1C(OC(=O)/C(C)=C/C)CC1(C)C(=O)CCC(=C)C21 (stereo not given) | 2.4 µM (inactive) | 2.3 µM (inactive) | 4.03 µM (inactive) | 3.15 | 1.62 µM (inactive) | 5.26 µM (inactive) | 17.9 µM (inactive) | 8.2 µM (inactive) | 2.77 µM (inactive) | 20.7 µM (inactive) | 2.54 µM (inactive) | 6.89 µM (inactive) | 14.8 µM (inactive) | 12.1 µM (inactive) | 11.3 µM (inactive) |  | 2.06 µM (inactive) | 2.93 µM (inactive) | 13.1 µM (inactive) | 1.95 µM (inactive)
Cc1cc(C)cc(Nc2cc(O)nc(O)n2)c1 | > 100 µM (inactive) | > 100 µM (inactive) | > 100 µM (inactive) | > 100 | > 100 µM (inactive) | > 100 µM (inactive) | > 100 µM (inactive) | > 100 µM (inactive) | > 100 µM (inactive) | 58.3 µM (inactive) |  | > 100 µM (inactive) | > 100 µM (inactive) | > 100 µM (inactive) | > 100 µM (inactive) | > 100 µM (inactive) | > 100 µM (inactive) | > 100 µM (inactive) | > 100 µM (inactive) | > 100 µM (inactive)
Cc1c(C)c(C)n(C2OC(CO)C(O)C(O)C2O)c(=S)c1C#N (stereo not given) | > 100 µM (inactive) | > 100 µM (inactive) | > 100 µM (inactive) | > 100 | > 100 µM (inactive) | > 100 µM (inactive) | > 100 µM (inactive) | > 100 µM (inactive) | > 100 µM (inactive) | > 100 µM (inactive) | > 100 µM (inactive) | > 100 µM (inactive) | > 100 µM (inactive) | > 100 µM (inactive) | > 100 µM (inactive) | > 100 µM (inactive) | > 100 µM (inactive) | > 100 µM (inactive) | > 100 µM (inactive) | 
C=CCN1C[C@H](C)N([C@@H](c2ccc(C(=O)N3CCCCC3)cc2)c2cccc(OC)c2)C[C@H]1C | 32.3 µM (inactive) | 21.5 µM (inactive) | 28.6 µM (inactive) | 29.6 | 98.6 µM (inactive) | 17.4 µM (inactive) | 30.1 µM (inactive) | 35 µM (inactive) | 64.1 µM (inactive) | 45.4 µM (inactive) | 21.7 µM (inactive) | 32.4 µM (inactive) | 58.1 µM (inactive) | 43.7 µM (inactive) | 27 µM (inactive) | 50.5 µM (inactive) | 16.1 µM (inactive) |  | 32.1 µM (inactive) | 
[O-][n+]1c2ccccc2[n+]([O-])c2cc(Br)ccc21 | 4.81 µM (inactive) | 0.0507 µM (active) | 70.1 µM (inactive) | 13.3 |  | 17.2 µM (inactive) | 24.4 µM (inactive) | 18.2 µM (inactive) | 0.144 µM (active) | 21.6 µM (inactive) | 12.9 µM (inactive) | 16.1 µM (inactive) | 27.8 µM (inactive) | 14.8 µM (inactive) | 13.9 µM (inactive) | 33.2 µM (inactive) | 2.02 µM (inactive) | 20.6 µM (inactive) | 14.6 µM (inactive) | 8.05 µM (inactive)
COc1cc(S(=O)(=O)N/N=C/c2cc(Br)c(O)c(OC)c2)c(OC)cc1NC(C)=O | 78.3 µM (inactive) | 21.7 µM (inactive) | 30.6 µM (inactive) | 52.6 | 34.1 µM (inactive) | > 100 µM (inactive) | 52.6 µM (inactive) | 80.5 µM (inactive) | 42.9 µM (inactive) | > 100 µM (inactive) |  | > 100 µM (inactive) | > 100 µM (inactive) | > 100 µM (inactive) | 20.2 µM (inactive) | > 100 µM (inactive) | 80.2 µM (inactive) | 35.1 µM (inactive) | > 100 µM (inactive) | 47.2 µM (inactive)
